Source: US20140242093A1, “METHODS AND COMPOSITIONS FOR MODULATING THE INNATE IMMUNE RESPONSE AND/OR MYOGENESIS IN A MAMMALIAN SUBJECT” (FRED HUTCHINSON CANCER RESEARCH CENTER, priority 2011, published 2014)

Tests used:
[1] = test system: HCT116, primary dendritic cells, JJ and FS; experiment: Real-time PCR of PRAMEF1 in transduced HCT116, primary dendritic cells, JJ and FS cell lines; assay type: cell-based, human
Method: HCT116 cells were infected with a control lenti-GFP or with lenti-DUX4-fl and the abundance of PRAMEF1 mRNA measured relative to a constitutively expressed gene, RPL13a.
Primary dendritic cells and the tumor cell lines derived from patients with chondrosarcomas designated JJ and FS (described in Jagasia, et al., 1996, supra) were transduced with lentiviral constructs expressing a control gene, green fluorescent protein (GFP), or DUX4fl. PRAMEF1 mRNA was measured by real-time PCR relative to a constitutively expressed control, RPL13a.

[2] = test system: 31-bp oligonucleotides containing the putative DUX4 binding site; experiment: Electromobility shift assay (EMSA); set-up: species or system human; details: in vitro translated protein; TRIM48, CSF1R, THE1D oligos
Method: EMSA was performed with ^32P-labeled 31-bp oligonucleotides from endogenous genomic sequences containing the putative DUX4 binding site as probes (sequences below; only forward shown). Radiolabeled probes were incubated with in vitro translated protein generated from pCS2-DUX4-fl or pCS2-DUX4-s^2 vectors using the TNT SP6 Coupled Wheat Germ Extract System (Promega) according to manufacturer's instructions. To obtain supershift of protein-DNA complexes, 0.1 μg of E14-3 anti-DUX4 rabbit monoclonal antibody was added to the mixtures. For competition experiments, excess unlabeled probes of either wild-type or mutant sequences were included in the binding reaction. The gels were prepared and run as previously described (Knoepfler et al., 1999).

[3] = test system: human rhabdomyosarcoma cell line RD; experiment: Luciferase reporter assay with DUX4 binding sites; assay type: cell-based
Method: The DUX4 binding site in the ZSCAN4 pGL3-promoter construct was either reversed in orientation (as shown in FIG. 3D) or moved downstream of the reporter gene (as shown in FIG. 3E). […] Transfections and luciferase assays were done as in main methods. Data are given as the averages±SD of triplicates.
Transient DNA transfections of RD cells were performed using SuperFect (Qiagen) according to manufacturer specifications. Briefly, 3×10^5 cells were seeded per 35 mm plate the day prior to transfection. […] Cells were lysed 24 h post-transfection in Passive Lysis Buffer (Promega). Luciferase activities were quantified using reagents from the Dual-Luciferase Reporter Assay System (Promega) following manufacturer's instructions. Light emission was measured using BioTek Synergy2 luminometer. Luciferase data are given as the averages±SD of at least triplicates.

[4] = test system: Cultured human muscle cells (54-1); experiment: Conditioned media from lenti-DUX4-fl cells on lenti-GFP transduced cells, RT-PCR of IFIH1 and DEFB103A/B; assay type: cell-based
Method: It was determined that DEFB103A (SEQ ID NO:49) and DEFB103B (SEQ ID NO:107), each encoding the polypeptide DEFB103A/B set forth as SEQ ID NO:178, are both activated by lenti-DUX4-fl and not by lenti-DUX4-s or lenti-GFP. These represent transcripts from a duplicated beta-defensin 3 gene, which can function as a suppressor of inflammation. As a secreted protein, DEFB103A/B (SEQ ID NO:178) has the potential to suppress the innate immune response in cells infected with lenti-GFP. As an initial step toward testing this, the inventors transduced cells with lenti-DUX4-fl or nothing for 12 hrs, washed extensively and replaced the culture media, then after an additional 12 hrs transferred the conditioned media to cells infected 24 hrs earlier with lenti-GFP.
Cultured human muscle cells (54-1) were transduced with nothing (first lane panels A and B), lenti-DUX4-fl @ approximately MOI=10 (lane 2), lenti-DUX4-fl MOI ˜1 (lane 3), lenti-GFP MOI ˜10 (lane 4), lenti-GFP transduced cells exposed to conditioned media from lane 2 cells (lane 5), lenti-GFP transduced cells exposed to conditioned media from lane 3 cells (lane 6), lenti-GFP transduced cells exposed to media from lane 5 cells that was filtered through a 35 kD cut-off filter. The conditioned media from the lenti-DUX4 transduced cells suppresses the IFIH1 induction by lenti-GFP (Panel A).

[5] = test system: cultured human skeletal muscle cells; details: cited from earlier work
[6] = test system: cultured control skeletal muscle; experiment: RT-PCR validation of microarray gene targets; assay type: cell-based, human; details: FIG. 1
Method: RNA was collected from cultured control skeletal muscle either transduced with a DUX4-fl expressing lentivirus (+) or not transduced (−). RPL13A was used as an internal standard. Total RNA was treated with DNase using TURBO DNA-free kit (Ambion) according to manufacturer's protocol. One μg of DNase-treated RNA was reverse transcribed to first strand cDNA with SuperScript III and anchored oligo dT (Invitrogen) at 52° C. for 1 h. Residual RNA was digested with RNase H at 37° C. for 20 min. cDNA was used in various PCR and real-time PCR reactions with primers listed below.
The primers shown below were designed to span exon-exon junctions where possible. Primers from select genes were also used in real-time PCR reactions to examine endogenous expression of targets in FSHD versus control samples described separately.

[7] = test system: normal skeletal muscle cells; experiment: RT-PCR of cancer testis antigens in transduced normal skeletal muscle cells; assay type: cell-based, human; details: RT-PCR vs lenti-GFP
From the text: The results were normalized to an internal control standard of either 18S or GAPDH.

## DUX4-fl: full-length DUX4 protein (SEQ ID NO:110), expressed from lentiviral or pCS2 vectors or in vitro translated
[1]
  PRAMEF1 gene expression: robust activation of the PRAMEF1 gene
[2]
  binding to DUX4 core motifs: binds the core motifs present in both MaLR-associated and non-repeat associated sites
[3]
  luciferase reporter with DUX4 binding sites from LTRs at a MaLR THE1D element: activated transcription of a luciferase reporter
[3]; TRIM48 or ZSCAN4 site, co-transfection in RD cells
  luciferase expression from pGL3-promoter reporter with 31 bp DUX4 binding site: significantly induced luciferase expression
[4]; RT-PCR
  expression of DEFB103A/B: induces expression of DEFB103A/B
[4]; qRT-PCR, no conditioned medium
  activation of IFIH1 by the construct: did not
[5]
  toxicity of forced over-expression: toxic to cells, inducing apoptotic cell death
[6]
  number of DUX4-fl regulated genes with differential expression validated by RT-PCR: 15 genes
[7]
  induction of cancer testis antigens BAGE, MAGEA4, MAGEA9, SSX1, SSX2, SSX4 and a PRAME family member: over 2 fold
